Results from article PMC11378298 (ACS Chemical Neuroscience, 2024).

Key:
BV-2 cell line = assay: TNF-α release in LPS-treated BV-2 cells (LANCE Ultra TR-FRET); format: cell-based, mouse; settings: compound 10 μM; LPS 100 ng/mL
Experimental: Cell viability was determined by Presto Blue assay after 24 h. (B) Effect of compounds 11, 34, and 36 (0.1, 1, 10 μM) on NO-release (%) in LPS-treated (100 ng/mL) BV-2 cell line. NO-release was measured using a fluorometric assay with 2,3-diaminonaphthalene (DAN). (C, D) Effects of compounds 11 and 36 (0.1, 1, 10 μM) on IL-6 and TNF-α release in LPS-treated (100 ng/mL) BV-2 cell line. The IL-6 and TNF-α levels were measured using LANCE Ultra TR-FRET Detection Kit (PerkinElmer). Statistical analysis was performed using GraphPad Prism 9.0.0. All values are expressed as mean with SD. Differences among groups were evaluated by one-way ANOVA followed by posthoc analysis (Dunnett’s multiple comparison tests) vs. control group (LPS on BV-2 cells and okadaic acid on HT-22 cells) and were considered statistically significant if p < 0.05 (*p < 0.05, **p < 0.01, ***p < 0.001, and ****p < 0.0001). […]
The IL-6 and TNF-α levels in the culture supernatants were measured using LANCE Ultra TR-FRET Detection Kit (PerkinElmer), according to manufacturer protocol. […] After 1 h of incubation of IL-6 and 3h for incubation of TNF-α in the dark, at 22 °C, the plates were read with an EnVision plate reader (PerkinElmer) with the excitation wavelength at 320 nm, the donor emission at 615 nm, and the acceptor emission at 660 nm. […]

[1] = Cytotoxicity in BV-2 cells (PrestoBlue); settings: mouse, BV-2 microglial cells
Experimental: The compounds were tested at 5 concentrations (0.1, 1, 10, 50, and 100 μM).
Mouse microglial cells (BV-2) were a generous gift from Professor Bozena Kaminska-Kaczmarek of the Laboratory of Molecular Neurobiology, Neurobiology Center, Nencki Institute of Experimental Biology, Polish Academy of Sciences, Warsaw, Poland. Cells were cultured in Dulbecco’s modified Eagle’s Medium-high glucose (DMEM, Glutamax Thermo Fisher) supplemented with 10% heat-inactivated fetal bovine serum (Thermo Fisher), 100 IU/mL penicillin (Merck) and 100 μg/mL streptomycin (Merck). Cells were cultured in flasks (area 175 cm^2, Nunc), and incubated at 37 °C, 5% CO2. To evaluate the level of NO, IL-6, and TNF-α and the effectiveness of the compounds tested, BV-2 microglia cells were cultured in a 96-well culture plate (5 × 10^4 cells per well, Falcon). For the measurement of cell viability and cell membrane damage, cells were placed in a 96-well culture plate (2 × 10^4 cells per well, Falcon). Before the tests, cells were grown for 24 h in the incubator (37 °C, 5% CO2).
Cell viability was evaluated using the PrestoBlue reagent (ThermoFisher), according to the manufacturer’s procedures.[87] Following 24 h of incubation with the tested molecule, PrestoBlue reagent was added to a microplate well in an amount equal to one-tenth of the remaining medium volume. The resulting mixture was incubated for 15 min at 37 °C, and the fluorescence intensity (EX 530 nm; EM 580 nm) was measured in the plate reader POLARstar Omega, (BMG Labtech).

HT-22 cells = assay: Okadaic acid-induced hyperphosphorylation model, cell viability; format: cell-based, mouse; settings: for increase in cells' viability after okadaic acid: okadaic acid 400 nM 3 h, viability after 24 h
Experimental: Thus, it is used in a cell model of hyperphosphorylated tau-induced neurodegeneration.[53],[54] […] The test was performed on the HT-22 cell line treated with okadaic acid at the concentration of 400 nM and the compounds at the concentration of 0.1, 1, and 10 μM. Cell viability was measured by the PrestoBlue cell viability reagent.
Cell viability was determined by Presto Blue assay after 24 h. (B) Effect of compounds 11, 34, and 36 (0.1, 1, 10 μM) on NO-release (%) in LPS-treated (100 ng/mL) BV-2 cell line. NO-release was measured using a fluorometric assay with 2,3-diaminonaphthalene (DAN). (C, D) Effects of compounds 11 and 36 (0.1, 1, 10 μM) on IL-6 and TNF-α release in LPS-treated (100 ng/mL) BV-2 cell line. The IL-6 and TNF-α levels were measured using LANCE Ultra TR-FRET Detection Kit (PerkinElmer). Statistical analysis was performed using GraphPad Prism 9.0.0. All values are expressed as mean with SD. Differences among groups were evaluated by one-way ANOVA followed by posthoc analysis (Dunnett’s multiple comparison tests) vs. control group (LPS on BV-2 cells and okadaic acid on HT-22 cells) and were considered statistically significant if p < 0.05 (*p < 0.05, **p < 0.01, ***p < 0.001, and ****p < 0.0001).
HT-22 cells were treated with okadaic acid (Merck): 400 nM for 3 h. After this time, the 10, 1, and 0.1 μM of tested compounds or DMSO were added and incubated in the aseptic condition (37 °C, 5% CO2). Cell viability was determined by Presto Blue assay after 24 h.

CYP2D6 = CYP2D6 (Homo sapiens, UniProt P10635); settings: for CYP2D6 activity at 0.1 µM / CYP2D6 activity at 1 µM / CYP2D6 activity at 10 µM / CYP2D6 activity at 25 µM: ± SD
Source text: (§1) Interactions with cytochrome enzymes are significant contributors to drug–drug interactions (DDIs), a crucial concern for patients who are on multiple medications. We determined the compounds’ influence on the most important CYP isoforms 3A4, 2D6, and 2C9, using the CYP450 inhibition luminescence assay from Promega (for details see Figures S23–S25 and Table S11 in the SI).
(§2) All protocols used for the evaluation of drug-like properties (ADME-To parameters) were described in our previous works.[58],[89] Precoated PAMPA Plate System Gentest was obtained from Corning, (Tewksbury, MA, USA). The metabolic stability assay was performed on human liver microsomes (HLMs, Sigma-Aldrich, St. Louis, MO, USA). The assays with microsomes were supported by MetaSite 6.0.1 software (Molecular Discovery Ltd. Hertfordshire, UK). To predict potential drug–drug interactions (DDIs) the influence on CYP3A4, CYP2D6, and CYP2C9 were carried with use of respective P450-Glo kit (Promega, Madison, WI, USA). The luminescence signal and absorbance were measured by using a microplate reader EnSpire PerkinElmer (Waltham, MA, USA). The LC/MS/MS analyses used in PAMPA and the assays with use of HLMs were obtained on Waters ACQUITY TQD system (Waters, Milford, CT, USA). […] Statistical significances and IC50 values were calculated by Graph Pad Prism 9 software. […]

CYP2C9 = CYP2C9 (Homo sapiens, UniProt P11712); settings: for CYP2C9 activity at 0.1 µM / CYP2C9 activity at 1 µM / CYP2C9 activity at 10 µM / CYP2C9 activity at 25 µM: ± SD
Source text: as §1, §2

CYP2D6, sequence (P10635 whole entry, canonical isoform): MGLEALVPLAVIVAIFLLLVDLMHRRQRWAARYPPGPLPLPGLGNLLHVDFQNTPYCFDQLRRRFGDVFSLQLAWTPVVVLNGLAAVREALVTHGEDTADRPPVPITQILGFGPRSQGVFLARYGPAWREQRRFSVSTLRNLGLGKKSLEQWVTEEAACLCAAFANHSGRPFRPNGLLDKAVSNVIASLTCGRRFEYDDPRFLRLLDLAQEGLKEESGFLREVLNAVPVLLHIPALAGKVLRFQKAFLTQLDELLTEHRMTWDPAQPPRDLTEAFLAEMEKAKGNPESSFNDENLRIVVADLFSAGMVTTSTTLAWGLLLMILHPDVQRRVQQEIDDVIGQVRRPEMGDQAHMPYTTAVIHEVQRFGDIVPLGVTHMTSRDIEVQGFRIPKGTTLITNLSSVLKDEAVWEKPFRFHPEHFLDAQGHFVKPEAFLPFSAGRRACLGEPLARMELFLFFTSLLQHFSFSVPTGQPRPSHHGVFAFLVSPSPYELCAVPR
CYP2C9, sequence (P11712 whole entry): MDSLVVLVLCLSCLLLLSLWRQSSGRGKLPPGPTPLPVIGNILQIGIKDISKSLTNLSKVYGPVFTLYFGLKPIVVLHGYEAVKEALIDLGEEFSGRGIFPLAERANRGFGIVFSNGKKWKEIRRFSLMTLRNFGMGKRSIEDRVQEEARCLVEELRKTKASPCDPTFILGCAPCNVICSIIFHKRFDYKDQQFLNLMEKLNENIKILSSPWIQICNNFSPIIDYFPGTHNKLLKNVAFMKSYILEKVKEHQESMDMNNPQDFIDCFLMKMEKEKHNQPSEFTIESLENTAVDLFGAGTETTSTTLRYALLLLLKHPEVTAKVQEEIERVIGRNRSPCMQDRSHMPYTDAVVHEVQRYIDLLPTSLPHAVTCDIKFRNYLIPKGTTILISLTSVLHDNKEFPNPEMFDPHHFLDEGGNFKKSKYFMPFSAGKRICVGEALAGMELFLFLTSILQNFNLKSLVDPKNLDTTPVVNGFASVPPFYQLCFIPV

Compound	TNF-α release (BV-2 cell line)	IC50 at 24 h [1] [µM]	increase in cells' viability after okadaic acid (HT-22 cells; compound 1 μM)	increase in cells' viability after okadaic acid (HT-22 cells; compound 10 μM)	CYP2D6 activity at 0.1 µM (CYP2D6)	CYP2D6 activity at 1 µM (CYP2D6)	CYP2D6 activity at 10 µM (CYP2D6)	CYP2D6 activity at 25 µM (CYP2D6)	effect on CYP2D6 (CYP2D6; any tested concentration)	effect on CYP2C9 (CYP2C9)	CYP2C9 activity at 0.1 µM (CYP2C9)	CYP2C9 activity at 1 µM (CYP2C9)	CYP2C9 activity at 10 µM (CYP2C9)	CYP2C9 activity at 25 µM (CYP2C9)	cell viability after okadaic acid treatment (HT-22 cells; concentration not stated)	interactions with CYP isoform 2C9 (CYP2C9; up to 25 μM)
NC(=O)N1CC=C(c2ccnc(NC(=O)C3CC3)c2)C1 [Compound 11, 3-(2-(Cyclopropanecarboxamido)pyridin-4-yl)-2,5-dihydro-1H-pyrrole-1-carboxamide]	significantly reducing the release	23.4 ± 1.7	statistically significant effect	statistically significant effect	91.2 ± 1.7 % of control	93.0 ± 6.0 % of control	95.2 ± 6.2 % of control	97.4 ± 14.8 % of control	no effect	inhibitory effect	103.9 ± 7.0 % of control	105.2 ± 7.4 % of control	89.8 ± 4.7 % of control	69.7 ±3.04 % of control	–	–
O=C(Nc1cc(-c2ccc(-c3ncon3)s2)ccn1)C1CC1 [Compound 36, N-(4-(5-(1,2,4-Oxadiazol-3-yl)thiophen-2-yl)pyridin-2-yl)cyclopropanecarboxamide]	significantly reducing the release	89.3 ± 4.9	–	statistically significant effect	98.4 ± 10.8 % of control	98.1 ± 12.7 % of control	100.4 ± 20.8 % of control	102.8 ± 15.0 % of control	–	inhibitory effect	109.5 ± 17.0 % of control	114.1 ± 14.9 % of control	95.2 ± 7.5 % of control	59.8 ± 11.5 % of control	restored cell viability	lacked significant interactions
